Results: US9265754B2, “Use of 1-{4-[1-(4-cyclohexyl-3-trifluoromethyl-benzyloxyimino)-ethyl]-2-ethyl-benzyl}-azetidine-3-carboxylic acid in treating symptoms associated with rett syndrome” (Novartis AG, priority 2007, dated 2016)

Legend:
BDNF = assay: In vivo S1P receptor modulator induced BDNF production (Western blot of cortex); design: species or system rat; settings: female DA rats
Description: Shown on the y-axis is the relative intensity of BDNF signal of animals treated with FTY720 vs control animals that had received vehicle (i.e., ratio of signal from FTY720-treated rats divided by signal from vehicle-treated rats, n=3 rats/group). On the x axis, the first two bars come from the frontal cortex, the second two from the parietal cortex and in each case the white bar represents the vehicle treated animals and the black bar represents the FTY720 treated animals.
N=3 animals each were treated with either vehicle, 0.1 mg/kg/d FTY720, 0.3 mg/kg/d FTY720 or 1 mg/kg/d FTY720.
Female DA rats were treated for 9 days (5 days, 2 day pause, 4 days) with FTY720 p.o.
Expt 1: 0.3 mg/kg/d vs. vehicle.
One day after the last treatment, the rats were perfused with ice-cold PBS and different CNS regions were isolated.
Female DA rats were treated for 9 days (5 days, 2 day pause, 4 days) with FTY720 p.o. 0.1; 0.3 or 1 mg/kg/d vs vehicle

[1] = system: patients with relapsing MS; settings: cited from earlier work
[2] = system: patients with relapsing MS; assay: Phase II trial in relapsing MS: depressive symptoms by Beck Depression Inventory second edition (BDI-II); type: in vivo, human; settings: for BDI-II score, change from baseline during core study: 6 months core study
Method: In this study, depressive symptoms were assessed by means of the Beck Depression Inventory second edition (BDI-II).
Patients with relapsing MS (relapsing-remitting or secondary progressive) were randomized to receive placebo or FTY720 1.25 or 5 mg/day, for 6 months (the core study). At the end of this period, placebo-treated patients were re-randomized to one of the two FTY720 doses, while those originally randomized to FTY720 continued treatment at the same doses. After approximately 18-24 months, patients receiving FTY720 5 mg, were switched to 1.25 mg in view of evidence that the higher dose conferred no efficacy benefit over the lower dose.
The BDI-II was administered at baseline, and at 3 and 6 months during the core study and at 12 and 24 months during the extension phase (i.e. 6 and 18 months after the start of the extension phase). This is a 21-item self-report scale measuring various symptoms and attitudes associated with depression. Respondents rate depressive symptoms experienced during the past two weeks on a 4-point scale, coded 0 to 3 by increasing order of severity. A total score across all 21 items can be generated, with lower total scores indicating lower overall severity of depressive symptoms. BDI-II total scores of 14 or above are indicative of clinical depression. Ny reduction in the BDI-II score indicated an improvement in depression.
Of the 281 patients originally randomized to treatment, 255 completed the core study. BDI-II scores at baseline and 6 months were available in 239 patients.

[3] = 281 patients with relapsing MS, 6 months, 1.25 and 5 mg once daily

## CCCCCCCCc1ccc(CCC(N)(CO)CO)cc1 [FTY720, 2-amino-2-[2-(4-octylphenyl)ethyl]propane-1,3-diol]
BDNF; 9-day treatment, 0.3 mg/kg/d p.o., frontal and parietal cortex, FIG. 1
  BDNF in the cortex (relative intensity of BDNF signal vs vehicle): induction of BDNF
BDNF; 9-day treatment, 0.1, 0.3 or 1 mg/kg/d p.o., FIGS. 2A-2B
  BDNF in the cortex, multiple doses: induction of BDNF
[1]; [3]
  reduction of annualized relapse rate compared with placebo: more than 50%
  reduction of gadolinium-enhanced MRI lesions compared with placebo: up to 80%
[1]; patients treated for up to 24 months
  low disease activity on MRI and relapses during dose-blinded extension phase: sustained
[2]; 1.25 mg/day
  BDI-II score, change from baseline during core study: decreased from baseline
[2]; 1.25 mg/day, at 6 months
  change in BDI-II scores from baseline vs placebo-treated patients: significantly greater
[2]; 5.0 mg/day
  BDI-II score, change from baseline during core study: remained consistent
[2]; 1.25 vs 5.0 mg/day, 5% level
  difference in changes in BDI-II scores between the two doses: not significant
